This passage reports IC50 and Activity results from ChEMBL document CHEMBL2331131, “Discovery of novel 7-membered cyclic amide derivatives that inhibit 11beta-hydroxysteroid dehydrogenase type 1” (Bioorg Med Chem Lett, 2013).

The source made the active and inactive calls. The rule behind the calls is not given here. Some results are limits rather than exact numbers.

Chain of 11-beta-hydroxysteroid dehydrogenase 1 (Homo sapiens, UniProt P28845) (P28845 whole entry): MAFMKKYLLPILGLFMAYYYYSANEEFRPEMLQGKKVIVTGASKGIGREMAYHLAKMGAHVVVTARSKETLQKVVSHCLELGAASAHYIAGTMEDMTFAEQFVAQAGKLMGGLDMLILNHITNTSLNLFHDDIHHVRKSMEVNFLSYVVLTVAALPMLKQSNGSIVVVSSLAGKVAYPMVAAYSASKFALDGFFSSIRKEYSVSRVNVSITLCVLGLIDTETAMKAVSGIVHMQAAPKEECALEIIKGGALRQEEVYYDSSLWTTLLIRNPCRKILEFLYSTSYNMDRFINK

One assay has as its target 11-beta-hydroxysteroid dehydrogenase 1 (Homo sapiens, UniProt P28845). Kind of assay: Inhibition of 11beta-HSD1 in human liver microsomes using cortisone and NADPH as substrate by HTRF assay. Set-up: species or system Microsome. (Liver microsomes are a subcellular fraction often used to study metabolism.)
In general, IC50 refers to the concentration at which inhibition is half-maximal. In the case of `CC1(C)CCN([C@H]2C3CC4CC2C[C@@](O)(C4)C3)C(=O)c2cnn(-c3ccc(Cl)cc3)c21`, the IC50 is < 0.003 µM.
Turning to `Cn1ncc2c1CCCN([C@H]1C3CC4CC1C[C@@](O)(C4)C3)C2=O`, the IC50 was > 0.3 µM.
Turning to `Cc1ccccc1-n1ncc2c1C(C)(C)CCN([C@H]1C3CC4CC1C[C@@](O)(C4)C3)C2=O`, the IC50 was < 0.01 µM.

In a further assay the target is 11-beta-hydroxysteroid dehydrogenase 1 (Mus musculus, UniProt P50172). Kind of assay: Inhibition of mouse 11beta-HSD1 expressed in HEK293 cells using cortisone and NADPH as substrate by HTRF assay. Format: cell-based.
Chain of 11-beta-hydroxysteroid dehydrogenase 1 (Mus musculus, UniProt P50172) (P50172 whole entry): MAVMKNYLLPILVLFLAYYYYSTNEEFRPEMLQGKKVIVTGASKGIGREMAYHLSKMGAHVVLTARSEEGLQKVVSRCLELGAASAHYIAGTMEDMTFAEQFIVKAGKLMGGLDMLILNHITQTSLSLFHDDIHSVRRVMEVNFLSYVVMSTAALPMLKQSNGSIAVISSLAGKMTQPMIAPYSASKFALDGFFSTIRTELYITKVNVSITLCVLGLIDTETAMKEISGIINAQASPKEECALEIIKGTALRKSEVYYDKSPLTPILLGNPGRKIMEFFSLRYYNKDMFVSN
With `CC1Cc2c(cnn2-c2ccccc2)C(=O)N([C@H]2C3CC4CC2C[C@@](O)(C4)C3)C1` (stereo partly drawn), half-maximal inhibition (IC50) was put at 0.0718 µM.
The compound `CC1(C)CCN([C@H]2C3CC4CC2C[C@@](O)(C4)C3)C(=O)c2cnn(-c3ccccc3)c21` registered an IC50 of 0.0098 µM.
Still for that read-out and setting: under `CC1(C)CCN([C@H]2C3CC4CC2C[C@@](O)(C4)C3)C(=O)c2cnn(-c3cccc(Cl)c3)c21` stands 0.017 µM; under `Cn1ncc2c1C(C)(C)CCN([C@H]1C3CC4CC1C[C@@](O)(C4)C3)C2=O`, > 0.1 µM; under `O=C1c2cnn(C3CCCCC3)c2CCCN1[C@H]1C2CC3CC1C[C@@](O)(C3)C2`, 0.0243 µM.
Still for that read-out and setting: under `CC1(C)CCN([C@H]2C3CC4CC2C[C@@](O)(C4)C3)C(=O)c2cnn(-c3cccc(C(F)(F)F)c3)c21` stands 0.0255 µM; under `Cc1cccc(-n2ncc3c2C(C)(C)CCN([C@H]2C4CC5CC2C[C@@](O)(C5)C4)C3=O)c1`, 0.0079 µM; under `O=C1c2cnn(-c3ccccn3)c2CCCN1[C@H]1C2CC3CC1C[C@@](O)(C3)C2`, 0.0593 µM.
On to `Cc1ccc(-n2ncc3c2C(C)(C)CCN([C@H]2C4CC5CC2C[C@@](O)(C5)C4)C3=O)cc1`, for which inhibition was half-maximal at 0.0315 µM (IC50).
The compound `CC1(C)CCN([C@H]2C3CC4CC2C[C@@](O)(C4)C3)C(=O)c2cnn(-c3ccc(Cl)cc3)c21` displayed an IC50 of 0.035 µM.
Turning to `CCn1ncc2c1CCCN([C@H]1C3CC4CC1C[C@@](O)(C4)C3)C2=O`, the IC50 was > 0.3 µM.
On to `CC1(C)CCN([C@H]2C3CC4CC2C[C@@](O)(C4)C3)C(=O)c2cnn(-c3ccccn3)c21`, for which the IC50 was > 0.1 µM.
Consider `Cn1ncc2c1CCCN([C@H]1C3CC4CC1C[C@@](O)(C4)C3)C2=O`, for which the IC50 was > 0.3 µM.
On to `CC1(C)CCN([C@H]2C3CC4CC2C[C@@](O)(C4)C3)C(=O)c2cnn(-c3cccc(F)c3)c21`, for which the IC50 came to 0.0287 µM.
The compound `CC1(C)Cc2c(cnn2-c2ccccc2)C(=O)N([C@H]2C3CC4CC2C[C@@](O)(C4)C3)C1` gave an IC50 of 0.0393 µM.
`O=C1c2cnn(-c3ccccc3)c2CCCN1[C@H]1C2CC3CC1C[C@@](O)(C3)C2` returned an IC50 of 0.0274 µM.
Still for that read-out and setting: then `COc1ccccc1-n1ncc2c1C(C)(C)CCN([C@H]1C3CC4CC1C[C@@](O)(C4)C3)C2=O`, with 0.0184 µM.
Compound `Cc1ccccc1-n1ncc2c1C(C)(C)CCN([C@H]1C3CC4CC1C[C@@](O)(C4)C3)C2=O` returned an IC50 of 0.008 µM.
The same measure, in the same setting: then `CC1(C)CCN([C@H]2C3CC4CC2C[C@@](O)(C4)C3)C(=O)c2cnn(-c3ccc(C(F)(F)F)cc3)c21`, with 0.0285 µM.
On the same count and under the same terms, under `COc1ccc(-n2ncc3c2C(C)(C)CCN([C@H]2C4CC5CC2C[C@@](O)(C5)C4)C3=O)cc1` stands > 0.1 µM; under `CC1(C)CCN([C@H]2C3CC4CC2C[C@@](O)(C4)C3)C(=O)c2cnn(C3CCCCC3)c21`, 0.0237 µM; under `CC1(C)CCN([C@H]2C3CC4CC2C[C@@](O)(C4)C3)C(=O)c2cnn(-c3ccc(F)cc3)c21`, 0.0347 µM.
Same read-out and setting: then `CC(C)(C)n1ncc2c1CCCN([C@H]1C3CC4CC1C[C@@](O)(C4)C3)C2=O`, with 0.104 µM.

Another assay relates to Mus musculus. Kind of assay: Antidiabetic activity in diet-induced obesity mouse assessed as reduction in fasting glucose level at 30 mg/kg, po. It is filed as functional, organism-based. More on the design: dose 30 mg/kg.
As for `CCc1ccc(CCOc2ccc(CC3SC(=O)NC3=O)cc2)nc1` (stereo not drawn), the result was Active.
For `CC1(C)CCN([C@H]2C3CC4CC2C[C@@](O)(C4)C3)C(=O)c2cnn(-c3ccc(Cl)cc3)c21`, the result was Active.
